This is an account of results in article PMC12693182, “Synthesis and QSAR Studies of Claramine Derivatives, a New Class of Broad-Spectrum Antimicrobial Agents” (Molecules, 2025).

The subject of one test is S. aureus ATCC 25923. Put plainly: MIC, broth microdilution. Type of test: cell-based, Staphylococcus aureus. The following applies: ATCC strain; for MIC: Staphylococcus aureus, ATCC25923, 24 h. Here is the method: (§1) Antimicrobial activity of the compounds was studied by determination of minimal inhibitory concentrations (MIC) according to the NCCLS guidelines M7-A2 using the microbroth dilution methods. The bacteria strains were grown on trypticase soy agar (Becton Dickinson) at 37 °C for 24 h. Inocula were prepared in TCE (tryptone 0.1%, […], wt/vol) by ajusting the turbidity at 623 nm to obtain 1–3 10^5 CFU/mL.
(§2) Antimicrobial activities of the compounds were determined by using a broth microdilution method performed in sterile 96-well microplates. All compounds were solubilized in water at a concentration of 10 mM and were transferred to each microplate well in order to obtain a two-fold serial dilution in 100 µL of broth and 100 µL of inoculum containing 2–6 10^5 CFU of each bacterium were added to each well. Some wells were reserved for positive controls and inoculum viability.
Background: In broth dilution the organism is exposed to a series of concentrations in liquid medium.

For a further test, the system named is S. aureus 340. Briefly: MIC, broth microdilution. It is filed as cell-based, Staphylococcus aureus. The following applies: for MIC: Staphylococcus aureus, 340, 24 h. Here is the method: as §1, §2
A further test deals with P. aeruginosa ATCC 27853. Put plainly: MIC, broth microdilution. It is filed as cell-based, Pseudomonas aeruginosa. The following applies: ATCC strain; for MIC: Pseudomonas aeruginosa, ATCC27853, 24 h. Here is the method: as §1, §2
For a further test, the system named is P. aeruginosa 1051575. Put plainly: MIC, broth microdilution. Type of test: cell-based, Pseudomonas aeruginosa. The following applies: for MIC: Pseudomonas aeruginosa, 1051575, 24 h. As to the method: as §1, §2
The subject of another test is E. coli 1956. Briefly: MIC, broth microdilution. The following applies: for MIC: Escherichia coli, 1956, 24 h. Type of test: cell-based, Escherichia coli. As to the method: as §1, §2
Another test deals with E. coli ATCC 25922. Put plainly: MIC, broth microdilution. Type of test: cell-based, Escherichia coli. The following applies: ATCC strain; for MIC: Escherichia coli, ATCC25922, 24 h. As to the method:
as §1, §2

For another test, the system named is E. faecalis ATCC29212. Put plainly: MIC, broth microdilution. Type of test: cell-based, Enterococccus faecalis. The following applies: ATCC strain; for MIC: Enterococcus faecalis, ATCC29212, 24 h, read-out: MIC E. faecalis 29212. Here is the method:
as §1, §2

The subject of a further test is S. intermedius 1051997. Briefly: MIC, broth microdilution. It is filed as cell-based, Staphylococcus intermedius. The following applies: for MIC: Staphylococcus intermedius, 1051997, 24 h. As to the method:
as §1, §2

The test system of test [1] is Chinese hamster Ovary cells (CHO-K1). Put plainly: Cytotoxicity assay (WST-1 / Neutral Red). Type of test: cell-based. The following applies: 24-h incubation; for IC50: Cricetulus griseus, 24 h. Here is the method:
The cytotoxic activities of compounds were assessed on Chinese hamster Ovary cells (CHO-K1) provided from ATCC-LGC Standards Sarl (Molsheim, France). Cells were maintained in Mc Coy’s 5A (CHO) medium supplemented with 10% bovine calf serum, 2 mM glutamine, and 100 U mL^−1/10 µg mL^−1 penicillin/streptomycin mixtures. For the cytotoxicity experiments, they were seeded in 96-well plates and incubated at 37 °C in humidified atmosphere containing 5% CO2 overnight, then concentrations of compounds were incorporated in triplicate cultures. After a 24-h incubation period at 37 °C, cells were submitted to three successive washes in phosphate buffer saline (PBS) and cell viability was evaluated by two different vital dyes: • i. A first set of cell cultures was incubated in PBS containing 10% WST-1 for 30 min at 37 °C, 5% CO2. Cell viability was evaluated by the assessment of WST-1 absorbance at 450 nm in a microplate spectrophotometer. • ii. A second set of cell cultures was placed into Neutral Red medium (50 μg mL^−1 Neutral Red in complete medium) and incubated for 3 h at 37 °C, 5% CO2. Then the Neutral Red medium was removed and the distaining solution (50% ethanol, 1% acetic acid, 49% distilled water; 50 µL per well) was added into the wells. The plates were shaken for 15–20 min at room temperature in the dark. Cell viability was evaluated by the assessment of absorbance at 540 nm in a microplate spectrophotometer.
Results were expressed as percentages of cell viability about the control (culture medium-only), which corresponded to 100% cell viability. Dose-response curves were calculated by non-linear regression analysis with TableCurve 2D software (V 5.0.1) (Systat Software Inc., San Jose, CA, USA). The Inhibitory Concentration 50% (IC50) was defined as the concentration of compounds that induced a 50% decrease of viable cells.
Background: Tetrazolium dyes change colour on reduction, which living cells bring about.

Test [2] has as its system Gram-positive and Gram-negative human and veterinary reference strains. Briefly: MIC against the panel of Gram-positive and Gram-negative reference strains. Type of test: cell-based. The following applies: for MIC: Homo sapiens, 24 h, over several or all of the tested pathogens.
Excerpt: Typically, cytotoxicity was expressed as the half maximal inhibitory concentration (IC50), defined as the concentration of a compound that decreases cell viability by 50% relative to untreated cells. This parameter provides a quantitative measure of a compound’s toxic potential toward mammalian cells. To facilitate data interpretation, we defined the Therapeutic Ratio (TR) as the ratio of IC50 (µg/mL) to MIC (µg/mL). This dimensionless parameter provides a straightforward measure of antibacterial selectivity, allowing direct comparison of cytotoxicity and antibacterial potency. A high TR value indicates compounds with strong antibacterial activity at concentrations far below their cytotoxic threshold, whereas a TR close to unity reflects poor selectivity and limited therapeutic potential. […] Within the Claramine A series, variations in IC50 strongly impacted TR values (Figure 5).
as §1, §2

Converted amounts (≈) assume the structure as drawn. Like-named read-outs stand apart in the source and are kept apart here.

As for `CC(C)OC(=O)CCC(C)C1CCC2C3CCC4CC(NCCN(CCN)CCN)CCC4(C)C3CCC12C` (centres unmarked) [Claramine E22], the minimum inhibitory concentration (MIC) (in general, the smallest concentration in the dilution series that meets the test's criterion for growth inhibition) against S. aureus ATCC 25923 was found to be 14 µg/mL (≈ 25.6 µM); against S. aureus 340, 14 µg/mL (≈ 25.6 µM); in the test with P. aeruginosa ATCC 27853 it was 110 µg/mL (≈ 201 µM); with P. aeruginosa 1051575 (24 h), 55 µg/mL (≈ 101 µM); in the test with E. coli 1956, 55 µg/mL (≈ 101 µM); in the test on E. coli ATCC 25922 it was 110 µg/mL (≈ 201 µM). Further, the minimal inhibitory concentration (MIC) with E. faecalis ATCC29212 was 55 µg/mL (≈ 101 µM); with S. intermedius 1051997 (24 h), 7 µg/mL (≈ 12.8 µM). The “IC50 CHO” value in [1] is 105 µg/mL (≈ 192 µM). The 50% inhibitory concentration (IC50) (as a rule, the midpoint of a concentration-inhibition curve) in test [1] is 107 µg/mL (≈ 196 µM).

With `CC(C)OC(=O)CCC(C)C1CCC2C3C(O)CC4CC(NCCCNCCCCN)CCC4(C)C3CCC12C` (centres unmarked) [Claramine C27], the “MIC S. aureus 25923” value with S. aureus ATCC 25923 (24 h) is 7 µg/mL (≈ 12.5 µM). Moreover, the “MIC S. aureus 340” value in the test on S. aureus 340 (24 h) was 7 µg/mL (≈ 12.5 µM). Further, the “MIC P. aeruginosa 27853” value in the test on P. aeruginosa ATCC 27853 (24 h) is 56 µg/mL (≈ 99.7 µM). Further, the “MIC P. aeruginosa 1051575” value in the test on P. aeruginosa 1051575 (24 h) was 56 µg/mL (≈ 99.7 µM). Further, the “MIC E. coli 1956” value against E. coli 1956 (24 h) turned out to be 28 µg/mL (≈ 49.8 µM). Besides, the “MIC E. coli 25922” value with E. coli ATCC 25922 (24 h) was 56 µg/mL (≈ 99.7 µM). Further, the “MIC E. faecalis 29212” value with E. faecalis ATCC29212 (24 h) is 28 µg/mL (≈ 49.8 µM). Also, the “MIC S. intermedius 1051997” value against S. intermedius 1051997 (24 h) was 7 µg/mL (≈ 12.5 µM). The “IC50 CHO” value in test [1] is recorded as 100 µg/mL (≈ 178 µM).

Regarding `CC(C)OC(=O)CCC(C)C1CCC2C3C(O)CC4CC(NCCCNCCCNCCCN)CCC4(C)C3CCC12C` (centres unmarked) [Claramine C17], the MIC with S. aureus ATCC 25923 turned out to be 4 µg/mL (≈ 6.61 µM); in the test on S. aureus 340 it was 2 µg/mL (≈ 3.31 µM); in the test on P. aeruginosa ATCC 27853 it was 16 µg/mL (≈ 26.4 µM); against E. coli 1956, 10 µg/mL (≈ 16.5 µM); against E. coli ATCC 25922 it was 16 µg/mL (≈ 26.4 µM); in the test with E. faecalis ATCC29212 it was 8 µg/mL (≈ 13.2 µM). For the same molecule, in the test with S. intermedius 1051997 (24 h), 0.8 µg/mL (≈ 1.32 µM) was the least that counted as inhibitory (MIC). Moreover, the “Therapeutic Ratio (TR)” value is above 10 in the test with P. aeruginosa 1051575 (IC50 (CHO)/MIC, P. aeruginosa) and 65–114 in the test on S. intermedius 1051997 (IC50 (CHO)/MIC, S. intermedius). Further, the “IC50 CHO” value in test [1] was 85 µg/mL (≈ 141 µM). Further, in test [1], the half-maximal inhibitory concentration (IC50) is above 60 µg/mL.

Turning to `COC(=O)CCC(C)C1CCC2C3CCC4CC(NCCCN5CCN(CCCN)CC5)CCC4(C)C3CC(O)C12C` (centres unmarked) [Claramine A18], the MIC was 15 µg/mL (≈ 25.5 µM) against S. aureus ATCC 25923; 7 µg/mL (≈ 11.9 µM) with S. aureus 340; below 15 µg/mL in test [2] (read-out: MIC); 15 µg/mL (≈ 25.5 µM) with P. aeruginosa ATCC 27853; 15 µg/mL (≈ 25.5 µM) against P. aeruginosa 1051575 (24 h); 7 µg/mL (≈ 11.9 µM) against E. coli ATCC 25922. Also, the minimum inhibitory concentration (MIC) in the test with E. faecalis ATCC29212 was 30 µg/mL (≈ 50.9 µM); against S. intermedius 1051997 (24 h), 4 µg/mL (≈ 6.79 µM). Further, the “Therapeutic Ratio (TR)” value in test [2] (IC50 (CHO)/MIC, over several of the tested pathogens) is above 5. This molecule also registered an IC50 in [1] of 135 µg/mL (≈ 229 µM).

Regarding `CC(C)OC(=O)CCC(C)C1CCC2C3CCC4CC(NCCCNCCCNCCCN)CCC4(C)C3CCC12C` (centres unmarked) [Claramine E02], the MIC against S. aureus ATCC 25923 was 7 µg/mL (≈ 11.9 µM); in the test on S. aureus 340, 7 µg/mL (≈ 11.9 µM); in the test on P. aeruginosa ATCC 27853, 28 µg/mL (≈ 47.5 µM); against P. aeruginosa 1051575 (24 h), 2 µg/mL (≈ 3.4 µM); against E. coli 1956, 7 µg/mL (≈ 11.9 µM); in the test on E. coli ATCC 25922, 14 µg/mL (≈ 23.8 µM). In addition, the MIC in the test on E. faecalis ATCC29212 came to 14 µg/mL (≈ 23.8 µM); in the test with S. intermedius 1051997 (24 h) it was 1 µg/mL (≈ 1.7 µM). This molecule registered an IC50 in test [1] of 15 µg/mL (≈ 25.5 µM).

Regarding `COC(=O)CCC(C)C1CCC2C3C(O)CC4CC(NCCCNCCCCNCCCN)CCC4(C)C3CCC12C` (centres unmarked) [Claramine C01], the minimal inhibitory concentration (MIC) came to 4 µg/mL (≈ 6.77 µM) against S. aureus ATCC 25923; 4 µg/mL (≈ 6.77 µM) in the test on S. aureus 340; 30 µg/mL (≈ 50.8 µM) in the test on P. aeruginosa ATCC 27853; 7 µg/mL (≈ 11.8 µM) against P. aeruginosa 1051575 (24 h); 60 µg/mL (≈ 102 µM) with E. coli 1956; 30 µg/mL (≈ 50.8 µM) in the test with E. coli ATCC 25922. Moreover, the minimum inhibitory concentration (MIC) turned out to be 15 µg/mL (≈ 25.4 µM) with E. faecalis ATCC29212 and 2 µg/mL (≈ 3.38 µM) against S. intermedius 1051997 (24 h). In [1], this molecule had an IC50 of 24 µg/mL (≈ 40.6 µM).

Regarding `COC(=O)CCC(C)C1CCC2C3C(O)CC4CC(NCCCCCCN)CCC4(C)C3CC(O)C12C` (centres unmarked) [Claramine B06], the MIC in the test on S. aureus ATCC 25923 is 3 µg/mL (≈ 5.76 µM); with S. aureus 340, 3 µg/mL (≈ 5.76 µM); in test [2], 0.7 to 30 µg/mL (≈ 1.34 to 57.6 µM); against P. aeruginosa ATCC 27853 it was 13 µg/mL (≈ 25 µM); with P. aeruginosa 1051575 (24 h), 13 µg/mL (≈ 25 µM); against E. coli ATCC 25922 it was 7 µg/mL (≈ 13.4 µM). Besides, the MIC came out at 7 µg/mL (≈ 13.4 µM) in the test with E. faecalis ATCC29212 and 2 µg/mL (≈ 3.84 µM) against S. intermedius 1051997 (24 h). For the same molecule, the “IC50 CHO” value in test [1] is reported as 60 µg/mL (≈ 115 µM). The molecule also came in with an IC50 in test [1] above 60 µg/mL.
